Source: patent publication US20060165672A1, “Fatigue reducing agent” (KANEKA CORPORATION, priority 2003, published 2006)

Key:
[1] = Level of reduced coenzyme Q in the muscle after oral administration (HPLC, electrochemical detector); format: in vivo, male SD rats; details: for Intramuscular level of reduced coenzyme Q (in words): after administration
Method: (§1) Reduced coenzyme Q10 obtained in the Reference Example 1 (containing about 1% of oxidized coenzyme Q10) was dissolved in soybean oil solution (reduced coenzyme Q10/soybean oil solution=20 mg/ml) and orally administered to male SD rats (6 weeks of age) at a dose of 100 mg/kg of reduced coenzyme Q10 (containing about 1% of oxidized coenzyme Q10), once a day for 5 days. Five days later, the muscles of the femoral region were collected, and coenzyme Q level in the muscle was measured. The measurement of the coenzyme Q level in the muscle was performed using HPLC. The harvested rat muscle (0.2 g) was homogenized after the addition of coenzyme Q7 (0.003 mg), ethanol (1 ml), distilled water (1 ml) and ferric chloride (0.01%), and then hexane (3 ml) was added. Coenzyme Q10 was extracted from the homogenate after shaking. After repeating this extraction operation twice, the extract was brought to dryness by evaporating hexane out, re-dissolved in 0.25 ml ethanol and injected to HPLC. HPLC condition is as follows; column: YMC-Pack (ODS-A303), detection wavelength: 275 nm, mobile phase: methanol (88%), hexane (12%), flow rate: 1 ml/min. The measurement of the ratio of reduced coenzyme Q10 and oxidized coenzyme Q10 in the muscle was carried out as follows. The harvested rat muscle (0.2 g) was homogenized after the addition of distilled water (0.2 ml) and ethanol (0.8 ml), and the homogenate was extracted by adding hexane (1.2 ml). After evaporating hexane under a stream of nitrogen, the extract was re-dissolved in ethanol (0.2 ml) and injected to HPLC. The condition of the HPLC operation was the same as the above except that the electrochemical detector was used. Soybean oil was administered to the control group.
The level of reduced coenzyme Q in the muscle was measured after administration of reduced coenzyme Q10 in a manner similar to (Example 1).
The level of reduced coenzyme Q in the muscle was measured after administration of oxidized coenzyme Q10 in a manner similar to (Comparative Example 1).

[2] = system: male SD rats (61 to 63 weeks of age); assay: Tread mill test in aged rats (maximum running time, crossover); format: in vivo, rat; details: for Maximum running time of aged rats (in words) / Maximum Running Time, Time prolonged / Maximum Running Time, After administration, relative to solvent control (100): 300 mg/kg oral; for Maximum Running Time, Time prolonged: after minus before administration; for Maximum Running Time, After administration, relative to solvent control (100) / Maximum Running Time, Before administration, relative to solvent control (100): value in parentheses; for Maximum Running Time, After administration: after 300 mg/kg oral dose; for Maximum Running Time, After administration / Maximum Running Time, Before administration: crossover; for Maximum Running Time, Before administration: baseline before 300 mg/kg oral dose
Method: (§2) The anti-fatigue effect of reduced coenzyme Q10 (note that it contained about 1% of oxidized coenzyme Q10) was evaluated in male SD rats (7 weeks of age, n=10) using a tread mill. A rat was forced to run at a speed of 10 m/min on the tread mill machine (Type NK-73-4, Natsume Seisakusho Co., Ltd.). Then the speed was increased stepwise by 5 m/min in every 3 min, and the time when the rat could no longer run was measured (the maximum running time). The soybean oil solution of reduced coenzyme Q10 according to the Reference Example 1 (reduced coenzyme Q10/soybean oil solution=20 mg/ml) was prepared as a test substance and orally administered to rats as reduced coenzyme Q10 (note that it contained about 1% of oxidized coenzyme Q10) with a dose of 300 mg/kg. The maximum running times were measured before administration and 2 hours after administration and a prolongation of the maximum running time was calculated. Soybean oil was administered to the control group.
The anti-fatigue effect of reduced coenzyme Q10 (containing about 1% of oxidized coenzyme Q10) was evaluated in male SD rats (61 to 63 weeks of age, n=7) in a manner similar to (Example 3). This experiment was performed using a crossover method. […]

[3] = system: male SD rats (7 weeks of age); assay: Tread mill test in young rats (maximum running time); format: in vivo, rat; details: for Maximum Running Time, Time prolonged: after minus before administration; for Maximum Running Time, After administration, relative to solvent control (100) / Maximum Running Time, Time prolonged, relative to solvent control (100) / Maximum Running Time, Before administration, relative to solvent control (100): value in parentheses; for Maximum Running Time, After administration: 2 hours after 300 mg/kg oral dose; for Maximum Running Time, Before administration: baseline before 300 mg/kg oral dose
Method: as §2
The anti-fatigue effect of oxidized coenzyme Q10 was evaluated in young rats in a manner similar to (Example 3).

[4] = Coenzyme Q level in the muscle after oral administration for 5 days (HPLC); format: in vivo, male SD rats
Method: as §1
Similarly oxidized coenzyme Q10 was administered and then the coenzyme Q level in the muscle was measured.

[5] = compared with oxidized coenzyme Q10, Japanese Patent Laid-Open No. 10-109933; cited from earlier work
[6] = femoral muscle, 100 mg/kg orally once a day for 5 days
[7] = value in parentheses, control group = 100
[8] = femoral muscle, 100 mg/kg orally once a day for 5 days, rats 6 weeks of age
[9] = value in parentheses, control group = 100, 100 mg/kg orally, 5 days

Row | SMILES | Intramuscular level of reduced coenzyme Q (in words) [1] | Level of Reduced Coenzyme Q in Muscle, Q9 [1, 6] | Level of Reduced Coenzyme Q in Muscle, Total CoQ [1, 6] | Level of Reduced Coenzyme Q in Muscle, Q9, relative to control group (100) [1, 7] | Level of Reduced Coenzyme Q in Muscle, Total CoQ, relative to control group (100) [1, 7] | Maximum running time of aged rats (in words) [2] | Maximum Running Time, Time prolonged [2] | Maximum Running Time, After administration, relative to solvent control (100) [2] | Maximum Running Time, After administration [2] | Maximum Running Time, Before administration [2] | Maximum Running Time, Before administration, relative to solvent control (100) [2] | Maximum Running Time, Time prolonged ([3]; 300 mg/kg oral) | Maximum Running Time, After administration, relative to solvent control (100) ([3]; 300 mg/kg oral) | Maximum Running Time, Time prolonged, relative to solvent control (100) ([3]; 300 mg/kg oral) | Maximum Running Time, After administration [3] | Maximum Running Time, Before administration [3] | Maximum Running Time, Before administration, relative to solvent control (100) [3] | Level of Coenzyme Q in Muscle, Q9 [4, 8] | Level of Coenzyme Q in Muscle, Total CoQ [4, 8] | Level of Coenzyme Q in Muscle, Q9, relative to control group (100) [4, 9] | also measured
1 | COC1=C(OC)C(=O)C(C/C=C(\C)CC/C=C(\C)CC/C=C(\C)CC/C=C(\C)CC/C=C(\C)CC/C=C(\C)CC/C=C(\C)CC/C=C(\C)CC/C=C(\C)CCC=C(C)C)=C(C)C1=O [Oxidized Coenzyme Q10, oxidized coenzyme Q10, reference compound] | decreased | 2.34 ± 0.42 µg/g | 2.45 ± 0.44 µg/g | (71*) | (68*) | no prolongation effect | 14 ± 43 s | (105) | 875 ± 108 s | 861 ± 123 s | (100) | 190 ± 76 s | (108**) | (339**) | 1733 ± 107 s | 1543 ± 99 s | (100) | 12.84 ± 2.03 µg/g | 14.18 ± 2.18 µg/g | (133) | Level of Reduced Coenzyme Q in Muscle, Q10, relative to control group (100) ([1]; rat, in vivo): (34**); Anti-fatigue effect in young rats (in words, compared with reduced coenzyme Q10) ([3]; 300 mg/kg oral): about the same as that of reduced coenzyme Q10; Level of Coenzyme Q in Muscle, Total CoQ, relative to control group (100) [4, 9]: (137)
2 | COc1c(O)c(C)c(C/C=C(\C)CC/C=C(\C)CC/C=C(\C)CC/C=C(\C)CC/C=C(\C)CC/C=C(\C)CC/C=C(\C)CC/C=C(\C)CC/C=C(\C)CCC=C(C)C)c(O)c1OC [Reduced Coenzyme Q10, reduced coenzyme Q10] | increased | 5.32 ± 1.07 µg/g | 5.71 ± 1.16 µg/g | (162*) | (159*) | significantly prolonged | 97 ± 28 s | (115) | 958 ± 52 s | 861 ± 123 s | (100) | 196 ± 127 s | (108*) | (349**) | 1719 ± 160 s | 1523 ± 97 s | (99) | 15.82 ± 2.89 µg/g | 17.39 ± 3.09 µg/g | (164*) | Level of Reduced Coenzyme Q in Muscle, Q10 [1, 6]: 0.39 ± 0.24 µg/g; Level of Reduced Coenzyme Q in Muscle, Q10, relative to control group (100) [1, 7]: (122); Maximum running time of rats (in words) ([3]; 300 mg/kg oral): significantly prolonged; Plasma level of coenzyme Q after oral administration (in words) [5]: raised the plasma level of coenzyme Q more than oral administration of oxidized coenzyme Q10; Endogenous coenzyme Q (in words) ([4]; after administration, endogenous = synthesized in vivo): increase of endogenous coenzyme Q; Level of Coenzyme Q in Muscle, Q10 [4, 8]: 1.57 ± 0.21 µg/g; Level of Coenzyme Q in Muscle, Q10, relative to control group (100) [4, 9]: (215**); Level of Coenzyme Q in Muscle, Total CoQ, relative to control group (100) [4, 9]: (168*)
